Assay results published in patent US20210070748A1, “INHIBITORS OF BRUTONS TYROSINE KINASE” (Pharmacyclics LLC, priority 2015, published 2021).
Structures can show the parent of a compound that is named as a salt.

Assays:
Assay type in all cases: biochemical
BTK-WT = target: T1, BTK-WT (Homo sapiens, UniProt Q06187); test: Btk in vitro inhibitory activity (one of Method A TR-FRET, Method B electrophoretic mobility shift, Method C radiometric filter binding); conditions: Table 10, Formula A-I; read-out: BTK-WT (IC50)
T1 construct: purified from insect cells as a full-length construct containing an N-terminal 6X-His tag; His6 (N); made in house; host or cells: insect cells (baculovirus Sf21 in Method B)

LCK = LCK (Homo sapiens, UniProt P06239); test: Inhibition of a panel of kinases, in vitro HotSpot kinase assay: LCK; conditions: Table 10, Formula A-I; 1 μM ATP; read-out: LCK (IC50)
JAK3 = target: T2, JAK3 (Homo sapiens, UniProt P52333); test: Inhibition of a panel of kinases, in vitro HotSpot kinase assay: JAK3; conditions: Table 10, Formula A-I; 1 μM ATP; read-out: JAK3 (IC50)
T2 sequence (P52333 1-1124): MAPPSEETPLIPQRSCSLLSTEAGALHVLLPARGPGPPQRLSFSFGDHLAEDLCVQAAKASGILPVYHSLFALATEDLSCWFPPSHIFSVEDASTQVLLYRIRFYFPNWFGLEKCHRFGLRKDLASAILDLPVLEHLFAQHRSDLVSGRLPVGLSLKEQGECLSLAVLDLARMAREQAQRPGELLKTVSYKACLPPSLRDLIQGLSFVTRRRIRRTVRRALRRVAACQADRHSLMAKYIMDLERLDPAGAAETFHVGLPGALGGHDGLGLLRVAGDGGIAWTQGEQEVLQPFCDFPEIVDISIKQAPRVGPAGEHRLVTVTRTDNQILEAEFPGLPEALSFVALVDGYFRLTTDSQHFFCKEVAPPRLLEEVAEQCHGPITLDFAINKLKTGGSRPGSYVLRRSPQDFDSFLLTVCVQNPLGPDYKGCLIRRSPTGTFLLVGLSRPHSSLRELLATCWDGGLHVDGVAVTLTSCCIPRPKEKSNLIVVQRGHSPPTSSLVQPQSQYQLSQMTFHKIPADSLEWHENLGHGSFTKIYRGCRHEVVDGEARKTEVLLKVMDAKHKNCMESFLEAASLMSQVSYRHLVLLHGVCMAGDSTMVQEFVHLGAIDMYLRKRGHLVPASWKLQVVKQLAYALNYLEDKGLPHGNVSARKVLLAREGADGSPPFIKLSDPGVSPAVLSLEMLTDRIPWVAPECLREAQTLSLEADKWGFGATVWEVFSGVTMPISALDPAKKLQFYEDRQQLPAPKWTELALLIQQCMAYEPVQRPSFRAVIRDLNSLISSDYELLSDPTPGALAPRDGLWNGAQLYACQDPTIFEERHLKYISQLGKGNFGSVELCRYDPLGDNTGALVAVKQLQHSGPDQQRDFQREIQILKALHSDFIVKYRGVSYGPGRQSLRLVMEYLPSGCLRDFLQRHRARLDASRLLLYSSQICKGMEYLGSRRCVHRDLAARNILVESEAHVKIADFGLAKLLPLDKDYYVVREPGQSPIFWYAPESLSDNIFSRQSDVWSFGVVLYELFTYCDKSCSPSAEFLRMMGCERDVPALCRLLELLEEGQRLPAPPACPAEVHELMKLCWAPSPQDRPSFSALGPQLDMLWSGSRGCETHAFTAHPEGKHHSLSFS

Sequence of LCK (P06239 whole entry): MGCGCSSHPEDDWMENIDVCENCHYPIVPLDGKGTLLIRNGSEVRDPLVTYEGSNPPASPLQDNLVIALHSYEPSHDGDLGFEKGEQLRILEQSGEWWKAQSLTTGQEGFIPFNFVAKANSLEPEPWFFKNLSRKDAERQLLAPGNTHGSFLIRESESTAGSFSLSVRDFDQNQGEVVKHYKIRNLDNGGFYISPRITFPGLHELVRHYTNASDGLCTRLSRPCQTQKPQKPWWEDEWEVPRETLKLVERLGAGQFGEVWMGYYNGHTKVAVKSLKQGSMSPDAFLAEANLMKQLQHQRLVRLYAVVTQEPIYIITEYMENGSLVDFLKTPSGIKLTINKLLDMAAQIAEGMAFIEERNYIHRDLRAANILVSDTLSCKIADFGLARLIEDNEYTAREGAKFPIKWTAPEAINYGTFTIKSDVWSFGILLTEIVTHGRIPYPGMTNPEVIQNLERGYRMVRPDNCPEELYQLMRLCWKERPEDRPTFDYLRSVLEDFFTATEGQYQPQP
T1 sequence (Q06187 whole entry): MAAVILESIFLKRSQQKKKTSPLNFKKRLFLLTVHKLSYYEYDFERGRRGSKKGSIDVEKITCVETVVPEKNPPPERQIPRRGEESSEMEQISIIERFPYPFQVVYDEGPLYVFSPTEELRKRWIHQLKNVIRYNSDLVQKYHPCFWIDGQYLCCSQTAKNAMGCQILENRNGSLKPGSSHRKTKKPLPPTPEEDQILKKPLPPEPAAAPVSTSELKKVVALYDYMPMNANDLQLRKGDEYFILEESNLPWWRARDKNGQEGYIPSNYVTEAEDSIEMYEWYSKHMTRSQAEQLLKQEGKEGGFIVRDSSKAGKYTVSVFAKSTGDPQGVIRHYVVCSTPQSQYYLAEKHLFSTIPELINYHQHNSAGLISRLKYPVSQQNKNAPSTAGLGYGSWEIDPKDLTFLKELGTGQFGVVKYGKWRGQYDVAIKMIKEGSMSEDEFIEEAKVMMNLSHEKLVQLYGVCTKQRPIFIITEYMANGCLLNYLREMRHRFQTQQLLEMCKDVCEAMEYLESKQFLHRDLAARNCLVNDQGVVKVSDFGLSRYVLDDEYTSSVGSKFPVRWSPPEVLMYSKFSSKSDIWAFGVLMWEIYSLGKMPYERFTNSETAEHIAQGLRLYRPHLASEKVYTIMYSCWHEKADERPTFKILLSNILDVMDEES

NC(=O)c1ncc(N2CCC[C@@H](NC(=O)Nc3ccccc3)C2)nc1Nc1ccc(C2CCN(C3CCCC3)CC2)cc1 [Example A-2, 3-{[4-(1-cyclopentylpiperidin-4-yl)phenyl]amino}-5-[(3R)-3-[(phenylcarbamoyl)amino]piperidin-1-yl]pyrazine-2-carboxamide hydrochloride]
IC50 (BTK-WT): ≤ 100 nM
IC50 (LCK): < 100 nM
IC50 (JAK3): 100 to 1000 nM

Cc1cccc(NC(=O)N[C@@H]2CCCN(c3cnc(C(N)=O)c(Nc4ccc(C5CCN(C6CCCC6)CC5)cc4)n3)C2)c1 [Example A-4, 3-{[4-(1-cyclopentylpiperidin-4-yl)phenyl]amino}-5-[(3R)-3-{[(3-methylphenyl)carbamoyl]amino}piperidin-1-yl]pyrazine-2-carboxamide hydrochloride]
IC50 (BTK-WT): ≤ 100 nM
IC50 (LCK): < 100 nM
IC50 (JAK3): 100 to 1000 nM

NC(=O)c1ncc(N2CCC[C@@H](NC(=O)N3Cc4ccccc4C3)C2)nc1Nc1ccc(C2CCN(C3CCCC3)CC2)cc1 [Example A-5, N-[(3R)-1-(5-carbamoyl-6-{[4-(1-cyclopentylpiperidin-4-yl)phenyl]amino}pyrazin-2-yl)piperidin-3-yl]-2,3-dihydro-1H-isoindole-2-carboxamide hydrochloride]
IC50 (BTK-WT): ≤ 100 nM
IC50 (LCK): 100 to 1000 nM
IC50 (JAK3): 100 to 1000 nM

CN(C(=O)N[C@@H]1CCCN(c2cnc(C(N)=O)c(Nc3ccc(C4CCN(C5CCCC5)CC4)cc3)n2)C1)c1ccccc1 [Example A-6, 3-{[4-(1-cyclopentylpiperidin-4-yl)phenyl]amino}-5-[(3R)-3-{[methyl(phenyl)carbamoyl]amino}piperidin-1-yl]pyrazine-2-carboxamide]
IC50 (BTK-WT): ≤ 100 nM
IC50 (LCK): 100 to 1000 nM
IC50 (JAK3): 100 to 1000 nM

CN(C)c1ccc(C(=O)N[C@@H]2CCCN(c3cnc(C(N)=O)c(Nc4ccc(C5CCN(C6CCCC6)CC5)cc4)n3)C2)cc1 [Example A-7, 3-{[4-(1-cyclopentylpiperidin-4-yl)phenyl]amino}-5-[(3R)-3-[4-(dimethylamino)benzamido]piperidin-1-yl]pyrazine-2-carboxamide hydrochloride]
IC50 (BTK-WT): ≤ 100 nM
IC50 (LCK): 100 to 1000 nM
IC50 (JAK3): 100 to 1000 nM

Cc1cccc(NC(=O)N[C@@H]2CCCN(c3cnc(C(N)=O)c(Nc4cc(C)ns4)n3)C2)c1 [Example A-10, 3-[(3-methyl-1,2-thiazol-5-yl)amino]-5-[(3R)-3-{[(3-methylphenyl)carbamoyl]amino}piperidin-1-yl]pyrazine-2-carboxamide]
IC50 (BTK-WT): ≤ 100 nM
IC50 (LCK): 100 to 1000 nM
IC50 (JAK3): 1000 to 10000 nM

Cc1cc(Nc2nc(N3CCC[C@@H](NC(=O)Nc4cccnc4)C3)cnc2C(N)=O)sn1 [Example A-11]
IC50 (BTK-WT): ≤ 100 nM
IC50 (LCK): 100 to 1000 nM
IC50 (JAK3): 1000 to 10000 nM

Cc1cc(Nc2nc(N3CCC[C@@H](NC(=O)Nc4ncc(C)s4)C3)cnc2C(N)=O)sn1 [Example A-12]
IC50 (BTK-WT): 100 to 1000 nM
IC50 (LCK): 1000 to 10000 nM
IC50 (JAK3): 1000 to 10000 nM

Cc1cc(Nc2nc(N3CCC[C@@H](NC(=O)NC4CCCCC4)C3)cnc2C(N)=O)sn1 [Example A-13, 5-[(3R)-3-[(cyclohexylcarbamoyl)amino]piperidin-1-yl]-3-[(3-methyl-1,2-thiazol-5-yl)amino]pyrazine-2-carboxamide]
IC50 (BTK-WT): ≤ 100 nM
IC50 (LCK): 100 to 1000 nM
IC50 (JAK3): 1000 to 10000 nM

Cc1cc(Nc2nc(N3CCC[C@@H](NC(=O)N4Cc5ccccc5C4)C3)cnc2C(N)=O)sn1 [Example A-17, N-[(3R)-1-{5-carbamoyl-6-[(3-methyl-1,2-thiazol-5-yl)amino]pyrazin-2-yl}piperidin-3-yl]-2,3-dihydro-1H-isoindole-2-carboxamide]
IC50 (BTK-WT): ≤ 100 nM
IC50 (LCK): 100 to 1000 nM
IC50 (JAK3): 100 to 1000 nM

Cc1cc(Nc2cc(N3CCC[C@@H](NC(=O)N4Cc5ccccc5C4)C3)cnc2C(N)=O)sn1 [Example A-18, N-[(3R)-1-{6-carbamoyl-5-[(3-methyl-1,2-thiazol-5-yl)amino]pyridin-3-yl}piperidin-3-yl]-2,3-dihydro-1H-isoindole-2-carboxamide]
IC50 (BTK-WT): ≤ 100 nM
IC50 (LCK): > 10000 nM
IC50 (JAK3): > 10000 nM

Cc1cc(Nc2nc(N3CCC[C@@H](NC(=O)c4ccccc4)C3)cnc2C(N)=O)sn1 [Example A-19, 5-[(3R)-3-benzamidopiperidin-1-yl]-3-[(3-methyl-1,2-thiazol-5-yl)amino]pyrazine-2-carboxamide]
IC50 (BTK-WT): ≤ 100 nM
IC50 (LCK): 100 to 1000 nM
IC50 (JAK3): 100 to 1000 nM

Cc1cc(Nc2nc(N3CCC[C@@H](NC(=O)c4ccc(F)cc4)C3)cnc2C(N)=O)sn1 [Example A-20, 5-[(3R)-3-(4-fluorobenzamido)piperidin-1-yl]-3-[(3-methyl-1,2-thiazol-5-yl)amino]pyrazine-2-carboxamide]
IC50 (BTK-WT): ≤ 100 nM
IC50 (LCK): 100 to 1000 nM
IC50 (JAK3): > 10000 nM

Cc1cc(Nc2nc(N3CCC[C@@H](NC(=O)c4ccc(N(C)C)cc4)C3)cnc2C(N)=O)sn1 [Example A-21, 5-[(3R)-3-[4-(dimethylamino)benzamido]piperidin-1-yl]-3-[(3-methyl-1,2-thiazol-5-yl)amino]pyrazine-2-carboxamide]
IC50 (BTK-WT): ≤ 100 nM
IC50 (LCK): > 10000 nM
IC50 (JAK3): 100 to 1000 nM

Cc1cc(Nc2nc(N3CCC[C@@H](NC(=O)c4cccc(F)c4)C3)cnc2C(N)=O)sn1 [Example A-22, 5-[(3R)-3-(3-fluorobenzamido)piperidin-1-yl]-3-[(3-methyl-1,2-thiazol-5-yl)amino]pyrazine-2-carboxamide]
IC50 (BTK-WT): ≤ 100 nM
IC50 (LCK): 100 to 1000 nM
IC50 (JAK3): 100 to 1000 nM

Cc1cc(Nc2nc(N3CCC[C@@H](NC(=O)c4ccccc4F)C3)cnc2C(N)=O)sn1 [Example A-23, 5-[(3R)-3-(2-fluorobenzamido)piperidin-1-yl]-3-[(3-methyl-1,2-thiazol-5-yl)amino]pyrazine-2-carboxamide]
IC50 (BTK-WT): ≤ 100 nM
IC50 (LCK): 100 to 1000 nM
IC50 (JAK3): 100 to 1000 nM

Cc1ccc(C(=O)N[C@@H]2CCCN(c3cnc(C(N)=O)c(Nc4cc(C)ns4)n3)C2)c(F)c1 [Example A-24, 5-[(3R)-3-(2-fluoro-4-methylbenzamido)piperidin-1-yl]-3-[(3-methyl-1,2-thiazol-5-yl)amino]pyrazine-2-carboxamide]
IC50 (BTK-WT): ≤ 100 nM
IC50 (LCK): > 10000 nM
IC50 (JAK3): > 10000 nM

Cc1cc(Nc2nc(N3CCC[C@@H](NC(=O)c4ccc(N)cc4)C3)cnc2C(N)=O)sn1 [Example A-25, 5-[(3R)-3-(4-aminobenzamido)piperidin-1-yl]-3-[(3-methyl-1,2-thiazol-5-yl)amino]pyrazine-2-carboxamide]
IC50 (BTK-WT): ≤ 100 nM
IC50 (LCK): 100 to 1000 nM
IC50 (JAK3): 100 to 1000 nM

Cc1cc(Nc2nc(N3CCC[C@@H](NC(=O)c4ccc(N5CCCC5)cc4)C3)cnc2C(N)=O)sn1 [Example A-26, 3-[(3-methyl-1,2-thiazol-5-yl)amino]-5-[(3R)-3-[4-(pyrrolidin-1-yl)benzamido]piperidin-1-yl]pyrazine-2-carboxamide]
IC50 (BTK-WT): ≤ 100 nM
IC50 (LCK): > 10000 nM
IC50 (JAK3): 1000 to 10000 nM

Cc1cc(Nc2nc(N3CCC[C@@H](NC(=O)c4cccc(N(C)C)c4)C3)cnc2C(N)=O)sn1 [Example A-27, (5-[(3R)-3-[3-(dimethylamino)benzamido]piperidin-1-yl]-3-[(3-methyl-1,2-thiazol-5-yl)amino]pyrazine-2-carboxamide hydrochloride]
IC50 (BTK-WT): ≤ 100 nM
IC50 (LCK): 100 to 1000 nM
IC50 (JAK3): 1000 to 10000 nM

CS(=O)(=O)c1ccc(Nc2nc(N3CCC[C@@H](NC(=O)Nc4ccccc4)C3)cnc2C(N)=O)cc1 [Example A-42, 3-[(4-methanesulfonylphenyl)amino]-5-[(3R)-3-[(phenylcarbamoyl)amino]piperidin-1-yl]pyrazine-2-carboxamide]
IC50 (BTK-WT): ≤ 100 nM
IC50 (LCK): 100 to 1000 nM

CS(=O)(=O)c1ccc(Nc2nc(N3CCC[C@@H](NC(=O)Nc4cccnc4)C3)cnc2C(N)=O)cc1 [Example A-43, 3-[(4-methanesulfonylphenyl)amino]-5-[(3R)-3-{[(pyridin-3-yl)carbamoyl]amino}piperidin-1-yl]pyrazine-2-carboxamide]
IC50 (BTK-WT): ≤ 100 nM
IC50 (LCK): 100 to 1000 nM

CC(C)c1ccc(Nc2nc(N3CCC(C(N)=O)CC3)nnc2C(N)=O)cc1 [Example A-91, 3-(4-carbamoylpiperidin-1-yl)-5-(4-isopropylphenylamino)-1,2,4-triazine-6-carboxamide]
IC50 (BTK-WT): 100 to 1000 nM
IC50 (LCK): > 10000 nM
